Structures are written as SMILES.

Consider 13 compounds from patent US12662479B2 (Foghorn Therapeutics Inc., priority 2020, dated 2026).

Experiment [1] deals with T1, HiBit-BRM fusion protein (Homo sapiens, UniProt P51531).
T1 construct: expressed in transfected cells
The experiment can be described thus: HiBiT-BRM cell-based degradation assay (Nano-Glo HiBiT Lytic Detection, 24 h). Particulars: HeLa cells expressing HiBiT-BRM; for DC50: read-out: BRM HiBit Degradation IC50; for BRM HiBit Degradation Maximum measured: top dose 30 μM. In a few lines: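 Stable HiBiT-BRM HeLa line; 24 h compound exposure, top final 30 μM, 3-fold, 10 pts in duplicate. Lytic HiBiT/LgBiT luminescence readout. % degradation vs DMSO (0%) and 2 μM known BRM/BRG1 degrader (100%).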
In general terms: HiBiT is a short tag that completes a luciferase, so light tracks the accessible tagged protein.

The target in experiment [2] is T2, HiBit-BRG1 fusion protein (Homo sapiens, UniProt P51532).
T2 construct: expressed in transfected cells
Put plainly: HiBiT-BRG1 cell-based degradation assay (Nano-Glo HiBiT Lytic Detection, 24 h). The following applies: HeLa cells expressing HiBit-BRG1 and LgBit; for DC50: read-out: BRG1 HiBit Degradation IC50; for Dmax: HeLa, top dose 30 μM, read-out: BRG1 HiBit Degradation Maximum measured. In outline: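 Degradation is scaled from DMSO-treated cells (0%) to cells given 2 μM of a known BRM/BRG1 degrader (100%). HeLa cells stably carrying HiBiT-BRG1 plus LgBiT (5000/well) were lysed with Nano-Glo HiBiT detection reagent, shaken 10 min at RT, and luminescence read.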

T1 sequence (P51531 whole entry, the tested form may be a part): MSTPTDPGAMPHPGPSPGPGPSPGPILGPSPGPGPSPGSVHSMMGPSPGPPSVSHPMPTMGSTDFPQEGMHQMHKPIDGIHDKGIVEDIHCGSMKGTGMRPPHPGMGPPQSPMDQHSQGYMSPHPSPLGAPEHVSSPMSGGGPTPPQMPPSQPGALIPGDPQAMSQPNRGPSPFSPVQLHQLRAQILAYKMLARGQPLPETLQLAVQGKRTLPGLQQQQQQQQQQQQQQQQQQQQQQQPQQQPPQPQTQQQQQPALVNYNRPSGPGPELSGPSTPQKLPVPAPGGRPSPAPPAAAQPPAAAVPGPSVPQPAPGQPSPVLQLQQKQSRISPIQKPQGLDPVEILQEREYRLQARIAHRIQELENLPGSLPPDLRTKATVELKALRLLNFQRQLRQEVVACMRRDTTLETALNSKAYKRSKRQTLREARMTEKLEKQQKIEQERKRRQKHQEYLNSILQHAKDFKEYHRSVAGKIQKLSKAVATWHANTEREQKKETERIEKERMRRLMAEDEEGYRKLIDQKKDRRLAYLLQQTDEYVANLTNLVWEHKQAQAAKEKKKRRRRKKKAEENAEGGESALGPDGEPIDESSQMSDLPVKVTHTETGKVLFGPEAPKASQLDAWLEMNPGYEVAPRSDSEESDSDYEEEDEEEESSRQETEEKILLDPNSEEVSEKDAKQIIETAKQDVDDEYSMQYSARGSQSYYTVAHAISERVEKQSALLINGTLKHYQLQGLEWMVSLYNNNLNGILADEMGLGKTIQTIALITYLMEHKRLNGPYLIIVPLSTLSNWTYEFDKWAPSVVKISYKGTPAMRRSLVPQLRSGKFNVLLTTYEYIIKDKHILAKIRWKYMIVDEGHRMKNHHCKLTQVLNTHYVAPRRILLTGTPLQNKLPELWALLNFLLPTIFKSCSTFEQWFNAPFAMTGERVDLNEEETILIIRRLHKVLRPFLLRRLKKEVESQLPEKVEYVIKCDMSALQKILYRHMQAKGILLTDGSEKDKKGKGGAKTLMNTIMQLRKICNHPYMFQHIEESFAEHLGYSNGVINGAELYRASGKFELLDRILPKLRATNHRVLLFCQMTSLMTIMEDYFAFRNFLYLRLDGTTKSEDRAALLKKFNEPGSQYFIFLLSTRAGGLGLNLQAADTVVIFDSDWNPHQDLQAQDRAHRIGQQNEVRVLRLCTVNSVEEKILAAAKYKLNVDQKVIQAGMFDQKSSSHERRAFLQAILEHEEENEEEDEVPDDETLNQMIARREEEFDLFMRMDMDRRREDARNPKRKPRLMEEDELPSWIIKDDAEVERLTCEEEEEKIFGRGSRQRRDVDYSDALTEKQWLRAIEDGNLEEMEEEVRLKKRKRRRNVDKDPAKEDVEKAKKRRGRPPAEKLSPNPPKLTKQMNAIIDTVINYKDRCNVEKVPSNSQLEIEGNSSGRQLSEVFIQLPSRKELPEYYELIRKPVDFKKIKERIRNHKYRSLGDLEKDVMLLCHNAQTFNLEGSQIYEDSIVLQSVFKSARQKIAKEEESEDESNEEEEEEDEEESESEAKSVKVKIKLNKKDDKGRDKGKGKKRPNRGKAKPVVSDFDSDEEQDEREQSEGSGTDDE
T2 sequence (P51532 whole entry, the tested form may be a part): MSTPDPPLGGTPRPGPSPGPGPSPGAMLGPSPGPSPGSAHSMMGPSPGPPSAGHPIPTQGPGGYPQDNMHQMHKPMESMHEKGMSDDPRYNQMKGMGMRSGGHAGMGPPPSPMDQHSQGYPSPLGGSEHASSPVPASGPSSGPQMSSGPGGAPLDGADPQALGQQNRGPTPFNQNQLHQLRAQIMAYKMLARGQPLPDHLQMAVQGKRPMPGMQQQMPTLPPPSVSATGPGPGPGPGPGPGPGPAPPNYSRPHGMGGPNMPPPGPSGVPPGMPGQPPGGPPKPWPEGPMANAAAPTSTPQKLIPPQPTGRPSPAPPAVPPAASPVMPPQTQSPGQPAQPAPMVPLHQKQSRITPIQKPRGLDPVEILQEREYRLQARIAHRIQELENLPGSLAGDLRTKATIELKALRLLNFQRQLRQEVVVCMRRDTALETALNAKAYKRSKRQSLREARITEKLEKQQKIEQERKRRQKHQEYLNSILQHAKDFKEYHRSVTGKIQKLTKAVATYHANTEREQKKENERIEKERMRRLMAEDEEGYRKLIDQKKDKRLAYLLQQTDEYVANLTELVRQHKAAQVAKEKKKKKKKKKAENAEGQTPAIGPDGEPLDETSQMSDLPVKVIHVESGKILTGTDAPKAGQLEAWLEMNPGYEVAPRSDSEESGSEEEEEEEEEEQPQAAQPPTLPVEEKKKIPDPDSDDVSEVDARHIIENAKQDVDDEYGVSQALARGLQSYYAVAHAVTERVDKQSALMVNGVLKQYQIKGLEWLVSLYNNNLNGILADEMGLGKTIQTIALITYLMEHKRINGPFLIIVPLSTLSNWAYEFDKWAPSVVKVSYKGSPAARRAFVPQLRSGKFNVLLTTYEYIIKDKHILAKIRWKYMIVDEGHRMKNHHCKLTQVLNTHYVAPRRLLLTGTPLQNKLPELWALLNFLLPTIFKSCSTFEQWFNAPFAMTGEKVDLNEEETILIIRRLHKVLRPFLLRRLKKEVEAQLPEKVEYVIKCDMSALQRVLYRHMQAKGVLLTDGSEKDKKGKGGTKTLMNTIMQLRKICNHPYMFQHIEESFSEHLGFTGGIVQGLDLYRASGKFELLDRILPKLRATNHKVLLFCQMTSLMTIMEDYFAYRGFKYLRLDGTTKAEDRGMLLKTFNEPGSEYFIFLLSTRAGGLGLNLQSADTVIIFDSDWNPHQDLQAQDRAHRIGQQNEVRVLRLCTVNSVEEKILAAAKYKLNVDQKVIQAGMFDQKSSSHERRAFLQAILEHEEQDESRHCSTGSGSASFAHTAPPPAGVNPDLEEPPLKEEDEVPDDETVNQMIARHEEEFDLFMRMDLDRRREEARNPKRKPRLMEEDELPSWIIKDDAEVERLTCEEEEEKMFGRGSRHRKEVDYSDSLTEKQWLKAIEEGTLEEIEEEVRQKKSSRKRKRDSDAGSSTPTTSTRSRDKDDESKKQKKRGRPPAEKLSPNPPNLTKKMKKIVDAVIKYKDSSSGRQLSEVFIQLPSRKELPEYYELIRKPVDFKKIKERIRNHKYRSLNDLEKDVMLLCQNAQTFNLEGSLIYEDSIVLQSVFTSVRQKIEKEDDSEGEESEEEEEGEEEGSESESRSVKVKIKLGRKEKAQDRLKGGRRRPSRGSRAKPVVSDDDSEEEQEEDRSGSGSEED

On to `CS(=O)(=O)n1ccc(C(=O)NCC(=O)Nc2nc(-c3cccc(-c4cccc(CNC(=O)CCCCCCCCNc5ccc6c(c5)C(=O)N(C5CCC(=O)NC5=O)C6=O)c4)c3)cs2)c1` (stereo not shown) [Compound 54, N-[2-[[4-[3-[3-[[9-[[2-(2,6-dioxo-3-piperidyl)-1,3-dioxo-isoindolin-5-yl]amino]nonanoylamino]methyl]-phenyl]phenyl]thiazol-2-yl]amino]-2-oxo-ethyl]-1-methylsulfonyl-pyrrole-3-carboxamide], for which, in experiment [1], the DC50 is above 10 µM and the “BRM HiBit Degradation Maximum measured” value is listed as “C (‘C’ = Maximum degradation <50%)”. Also, in experiment [2], the DC50 is above 10 µM and the Dmax was below 50%.

Consider `CS(=O)(=O)n1ccc(C(=O)NCC(=O)Nc2nc(-c3cccc(-c4cccc(CNC(=O)CCOCCOCCOc5ccc6c(c5)C(=O)N(C5CCC(=O)NC5=O)C6=O)c4)c3)cs2)c1` (stereo not shown) [Compound 55, N-[2-[[4-[3-[3-[[3-[2-[2-[2-(2,6-dioxo-3-piperidyl)-1,3-dioxo-isoindolin-5-yl]oxyethoxy]ethoxy]propanoylamino]-methyl]phenyl]phenyl]thiazol-2-yl]amino]-2-oxo-ethyl]-1-methylsulfonyl-pyrrole-3-carboxamide], for which, in experiment [1], the DC50 was 0.1 to 1 µM; the “BRM HiBit Degradation Maximum measured” value was “B (‘B’ = Maximum degradation ≥50% and ≤75%)”. In experiment [2], the DC50 lay within 0.1 to 1 µM and the Dmax lay in the range of 50 to 75%.

As for `Cc1ncsc1-c1ccc(CNC(=O)[C@@H]2C[C@@H](O)CN2C(=O)[C@@H](NC(=O)CCCC(=O)NCc2cccc(-c3cccc(-c4csc(NC(=O)CNC(=O)c5ccn(S(C)(=O)=O)c5)n4)c3)c2)C(C)(C)C)cc1` [Compound 56, N′-[(1S)-1-[(2S,4R)-4-hydroxy-2-[[4-(4-methylthiazol-5-yl)phenyl]methylcarbamoyl]pyrrolidine-1-carbonyl]-2,2-dimethyl-propyl]-N-[[3-[3-[2-[[2-[(1-methylsulfonylpyrrole-3-carbonyl)amino]acetyl]amino]thiazol-4-yl]phenyl]phenyl]methyl]pentanediamide], in experiment [1], the DC50 is above 10 µM and the “BRM HiBit Degradation Maximum measured” value is on record as “C (‘C’ = Maximum degradation <50%)”. Further, in experiment [2], the DC50 is above 10 µM and the Dmax was below 50%.

For the compound `CS(=O)(=O)n1ccc(C(=O)NCC(=O)Nc2nc(-c3cccc(-c4cccc(CNC(=O)CCCCOc5cccc6c5C(=O)N(C5CCC(=O)NC5=O)C6=O)c4)c3)cs2)c1` (stereo not shown) [Compound 57, N-(2-((4-(3′-((5-((2-(2,6-dioxopiperidin-3-yl)-1,3-dioxoisoindolin-4-yl)oxy)pentanamido)methyl)-[1,1′-biphenyl]-3-yl)thiazol-2-yl)amino)-2-oxoethyl)-1-(methylsulfonyl)-1H-pyrrole-3-carboxamide], in experiment [1], the DC50 was above 10 µM and the “BRM HiBit Degradation Maximum measured” value was “C (‘C’ = Maximum degradation <50%)”. In addition, in experiment [2], the DC50 is above 10 µM and the Dmax was below 50%.

Consider `CS(=O)(=O)n1ccc(C(=O)NCC(=O)Nc2nc(-c3cccc(-c4cccc(CNC(=O)CCCCCCCOc5cccc6c5C(=O)N(C5CCC(=O)NC5=O)C6=O)c4)c3)cs2)c1` (stereo not shown) [Compound 59, N-(2-((4-(3′-((8-((2-(2,6-dioxopiperidin-3-yl)-1,3-dioxoisoindolin-4-yl)oxy)octanamido)methyl)-[1,1′-biphenyl]-3-yl)thiazol-2-yl)amino)-2-oxoethyl)-1-(methylsulfonyl)-1H-pyrrole-3-carboxamide], for which, in experiment [1], the DC50 was above 10 µM and the “BRM HiBit Degradation Maximum measured” value is “C (‘C’ = Maximum degradation <50%)”. Further, in experiment [2], the DC50 was above 10 µM and the Dmax was below 50%.

`CN(CC(=O)NCCCCCNc1ccc2c(c1)C(=O)N(C1CCC(=O)NC1=O)C2=O)c1cc(-c2cccc(-c3csc(NC(=O)CNC(=O)c4ccn(S(C)(=O)=O)c4)n3)c2)ccn1` (stereo not shown) [Compound 60]: in experiment [1], the DC50 is above 10 µM and the “BRM HiBit Degradation Maximum measured” value was “C (‘C’ = Maximum degradation <50%)”. Besides, in experiment [2], the DC50 is above 10 µM and the Dmax is below 50%.

`CS(=O)(=O)n1ccc(C(=O)NCC(=O)Nc2nc(-c3cccc(-c4cccc(CNC(=O)C5CC5CNC(=O)COc5ccc6c(c5)C(=O)N(C5CCC(=O)NC5=O)C6=O)c4)c3)cs2)c1` (stereo not shown) [Compound 61, N-[2-[[4-[3-[3-[[[2-[[[2-[2-(2,6-dioxo-3-piperidyl)-1,3-dioxo-isoindolin-5-yl]oxyacetyl]amino]methyl]-cyclopropanecarbonyl]amino]methyl]-phenyl]phenyl]thiazol-2-yl]amino]-2-oxo-ethyl]-1-methylsulfonyl-pyrrole-3-carboxamide]: in experiment [1], the DC50 lay within 1 to 10 µM; the “BRM HiBit Degradation Maximum measured” value was “B (‘B’ = Maximum degradation ≥50% and ≤75%)”. Also, in experiment [2], the DC50 is 0.1 to 1 µM and the Dmax lay in the range of 50 to 75%.

With `Cc1ncsc1-c1ccc(CNC(=O)[C@@H]2C[C@@H](O)CN2C(=O)[C@@H](NC(=O)CCCCCC(=O)NCc2cccc(-c3cccc(-c4csc(NC(=O)CNC(=O)c5ccn(S(C)(=O)=O)c5)n4)c3)c2)C(C)(C)C)cc1` [Compound 62, N1-((S)-1-((2S,4R)-4-hydroxy-2-((4-(4-methylthiazol-5-yl)benzyl)carbamoyl)pyrrolidin-1-yl)-3,3-dimethyl-1-oxobutan-2-yl)-N7-((3′-(2-(2-(1-(methylsulfonyl)-1H-pyrrole-3-carboxamido)acetamido)thiazol-4-yl)-[1,1′-biphenyl]-3-yl)methyl)heptanediamide], in experiment [1], the DC50 was 0.1 to 1 µM and the “BRM HiBit Degradation Maximum measured” value is on record as “A (‘A’ = Maximum degradation >75%)”. In experiment [2], the DC50 lay in the range of 0.1 to 1 µM and the Dmax is above 75%.

Take `Cc1ncsc1-c1ccc(CNC(=O)[C@@H]2C[C@@H](O)CN2C(=O)[C@@H](NC(=O)CCC(=O)NCc2cccc(-c3cccc(-c4csc(NC(=O)CNC(=O)c5ccn(S(C)(=O)=O)c5)n4)c3)c2)C(C)(C)C)cc1` [Compound 63, N1-((S)-1-((2S,4R)-4-hydroxy-2-((4-(4-methylthiazol-5-yl)benzyl)carbamoyl)pyrrolidin-1-yl)-3,3-dimethyl-1-oxobutan-2-yl)-N4-((3′-(2-(2-(1-(methylsulfonyl)-1H-pyrrole-3-carboxamido)acetamido)thiazol-4-yl)-[1,1′-biphenyl]-3-yl)methyl)succinamide]: in experiment [1], the DC50 was above 10 µM and the “BRM HiBit Degradation Maximum measured” value is given as “C (‘C’ = Maximum degradation <50%)”. In experiment [2], the DC50 is above 10 µM and the Dmax is below 50%.

For the compound `CS(=O)(=O)n1ccc(C(=O)NCC(=O)Nc2nc(-c3cccc(-c4cccc(CNC(=O)CCOCCOCCOc5cccc6c5C(=O)N(C5CCC(=O)NC5=O)C6=O)c4)c3)cs2)c1` (stereo not shown) [Compound 64, N-[2-[[4-[3-[3-[[3-[2-[2-[2-(2,6-dioxo-3-piperidyl)-1,3-dioxo-isoindolin-4-yl]oxyethoxy]ethoxy]propanoylamino]-methyl]phenyl]phenyl]thiazol-2-yl]amino]-2-oxo-ethyl]-1-methylsulfonyl-pyrrole-3-carboxamide], in experiment [1], the DC50 is above 10 µM and the “BRM HiBit Degradation Maximum measured” value is given as “C (‘C’ = Maximum degradation <50%)”. Also, in experiment [2], the DC50 was above 10 µM and the Dmax was below 50%.

As for `Cc1ncsc1-c1ccc(CNC(=O)[C@@H]2C[C@@H](O)CN2C(=O)[C@@H](NC(=O)CCCCCCCCCC(=O)NCc2cccc(-c3cccc(-c4csc(NC(=O)CNC(=O)c5ccn(S(C)(=O)=O)c5)n4)c3)c2)C(C)(C)C)cc1` [Compound 65, N1-((S)-1-((2S,4R)-4-hydroxy-2-((4-(4-methylthiazol-5-yl)benzyl)carbamoyl)pyrrolidin-1-yl)-3,3-dimethyl-1-oxobutan-2-yl)-N11-((3′-(2-(2-(1-(methylsulfonyl)-1H-pyrrole-3-carboxamido)acetamido)thiazol-4-yl)-[1,1′-biphenyl]-3-yl)methyl)undecanediamide], in experiment [1], the DC50 is below 0.1 µM and the “BRM HiBit Degradation Maximum measured” value is recorded as “A (‘A’ = Maximum degradation >75%)”. For the same compound, in experiment [2], the DC50 is below 0.1 µM and the Dmax was above 75%.

For the compound `CN(CC(=O)NCCCCNc1ccc2c(c1)C(=O)N(C1CCC(=O)NC1=O)C2=O)c1cc(-c2cccc(-c3csc(NC(=O)CNC(=O)c4ccn(S(C)(=O)=O)c4)n3)c2)ccn1` (stereo not shown) [Compound 67], in experiment [1], the DC50 is above 10 µM and the “BRM HiBit Degradation Maximum measured” value is “C (‘C’ = Maximum degradation <50%)”. In addition, in experiment [2], the DC50 is above 10 µM and the Dmax was below 50%.

As for `CS(=O)(=O)n1ccc(C(=O)NCC(=O)Nc2nc(-c3cccc(-c4ccnc(OCCNC(=O)CCOCCOCCOc5cccc6c5C(=O)N(C5CCC(=O)NC5=O)C6=O)c4)c3)cs2)c1` (stereo not shown) [Compound 68, N-[2-[[4-[3-[2-[2-[3-[2-[2-[2-(2,6-dioxo-3-piperidyl)-1,3-dioxoisoindolin-4-yl]oxyethoxy]ethoxy]propanoylamino]ethoxy]-4-pyridyl]phenyl]thiazol-2-yl]amino]-2-oxo-ethyl]-1-methylsulfonyl-pyrrole-3-carboxamide], in experiment [1], the DC50 fell in the range of 0.1 to 1 µM; the “BRM HiBit Degradation Maximum measured” value was “B (‘B’ = Maximum degradation ≥50% and ≤75%)”. In experiment [2], the DC50 fell in the range of 0.1 to 1 µM and the Dmax fell in the range of 50 to 75%.
